Patent US8853156B2, “Treatment for diabetes in patients inappropriate for metformin therapy” (Boehringer Ingelheim International GmbH, priority 2008, dated 2014)

Tests used:
[1] = male, human, in vivo, po
[2] = Pharmacokinetics of multiple oral doses once daily for 12 days in patients with type 2 diabetes

excreted unchanged in urine and feces [1]: 90 % of excreted radioactivity | parent compound share of sample radioactivity in plasma [1]: 74 % of sample radioactivity | main excretion organ ([2]; therapeutic oral dose levels): mainly excreted via the liver
Structure (SMILES): CC#CCn1c(N2CCC[C@@H](N)C2)nc2c1c(=O)n(Cc1nc(C)c3ccccc3n1)c(=O)n2C [BI 1356]
excretion route and form ([2]; human, in vivo): primarily excreted unchanged via the bile
